How the values were obtained:
[1] = target: human dopamine transporter (DAT) (Homo sapiens (Human), UniProt Q01959); experiment: Scintillation Proximity Assay (SPA) competition binding, human DAT; conditions: recombinant hDAT-CHO membranes, [3H]WIN-35,428
Description: (§1) Measure of Affinity to the Human Transporters DAT, NET and SERT
In the context of the present invention pKi values (corresponding to the antilogarithm of Ki) are used instead of Ki; pKi are only estimated to be accurate to about 0.3 log unit.
(§2) Scintillation Proximity Assay (SPA) for Human DAT, NET and SERT Binding
(§3) Chinese Hamster Ovary (CHO) cells stably expressing either human DAT (hDAT-CHO) or human NET (hNET-CHO) or human SERT (hSERT-CHO) are used for the membrane preparations for radioligand binding assays using Scintillation proximity Assay (SPA) technique. Each cell line is cultured independently in F-12K Nutrient Mixture containing 10% of Fetal Bovine Serum (FBS) supplemented with 450 μg/ml G-418. When cells are at 70-80% of confluence 3 mM Na Butyrate was added to the cell culture medium. After 24 h of incubation, the culture medium was removed and the cells detached with Versene (DAT) or by scraping (NET and SERT). Cell suspension is centrifuged at 41,000 g for 10 minutes at 4° C. The resultant pellets are re-suspended in 15 volumes of Ice-cold buffer (20 mM HEPES, 145 mM NaCl, 5 mM KCl, pH7.3), homogenized using an Ultra Turrax homogeniser and centrifuged as before. The resultant membrane pellets are re-suspended in up to 15 volume of ice-cold buffer, incubated for 20 minutes at 37-C and centrifuged as before at 41,000 g. The final membrane pellets are re-suspended into 5-10 volumes of ice-cold buffer, dispensed into 0.5 ml aliquots and stored at −80° C. until use. Protein concentration for each preparation is determined using Bio-Rad Protein Assay kit.
(§4) The affinity of the compounds of the invention to the human DAT or NET or SERT transporters is assessed by using the [^3H]WIN-35,428 or [^3H]nisoxetine or [^3H]citalopram binding assays in recombinant human DAT, NET and SERT membranes with the SPA technology. The final assay volume is 50 μL in 384 well plates.
(§5) Briefly, 0.5 μL of test compound in neat DMSO or 0.5 μL of DMSO for total binding (TB) or 0.5 μL of indatraline 1 mM (10 μM final concentration) for non specific binding (NSB) are added to the assay plate. 50 μL of the SPA mixture is added to each well, containing: 30 μg/mL or 10 μg/mL or 25 μg/mL DAT, NET, SERT membranes, respectively; 5 nM [^3H]WIN-35,428 or 5 nM [^3H]nisoxetine or 1 nM [^3H]citalopram, for DAT, NET, SERT assay, respectively; 2.5 mg/mL or 1 mg/mL or 4 mg/mL WGA-PVT SPA beads (PerkinElmer RPNQ0001, for DAT, NET, SERT assay, respectively. All components are added to Assay Buffer (20 mM HEPES pH 7.4, 145 mM NaCl, 5 mM KCl, 0.01% Pluronic F-127). 0.02% BSA was used for DAT binding only. Plates are sealed with Topseal A and centrifuged 1 min, 800 rpm. Plates are loaded into a 1450 Microbeta TriLux (Perkin-Elmer) plate reader and the radioactivity counted after at least 4 hrs or overnight incubation at room temperature. Curve fitting and IC50 estimations are performed using a four parameter model in XLfit (IDBS, Guilford, UK) for Microdoft Excel (Microsoft, Redmond, Wash.).

[2] = target: human serotonin transporter (SERT) (Homo sapiens (Human), UniProt P31645); experiment: Scintillation Proximity Assay (SPA) competition binding, human SERT; conditions: recombinant hSERT-CHO membranes, [3H]citalopram
Description: as §1
(§6) Affinity is expressed in terms of inhibition constant (Ki) of the compounds of the invention for DAT, NET and SERT, and it is typically calculated from the IC50 values obtained in competition experiments using Cheng and Prusoff equation (Cheng and Prusoff, Biochem. Pharmacol. 22:3099, 1973). In the context of the present invention pKi values (corresponding to the antilogarithm of Ki) are used instead of Ki; pKi are only estimated to be accurate to about 0.3 log unit.
as §2, §3, §4, §5

[3] = target: human norepinephrine transporter (NET) (Homo sapiens (Human), UniProt P23975); experiment: Scintillation Proximity Assay (SPA) competition binding, human NET; conditions: recombinant hNET-CHO membranes, [3H]nisoxetine
Description: as §1, §6, §2, §3, §4, §5

Chain of human serotonin transporter (SERT) (P31645 whole entry): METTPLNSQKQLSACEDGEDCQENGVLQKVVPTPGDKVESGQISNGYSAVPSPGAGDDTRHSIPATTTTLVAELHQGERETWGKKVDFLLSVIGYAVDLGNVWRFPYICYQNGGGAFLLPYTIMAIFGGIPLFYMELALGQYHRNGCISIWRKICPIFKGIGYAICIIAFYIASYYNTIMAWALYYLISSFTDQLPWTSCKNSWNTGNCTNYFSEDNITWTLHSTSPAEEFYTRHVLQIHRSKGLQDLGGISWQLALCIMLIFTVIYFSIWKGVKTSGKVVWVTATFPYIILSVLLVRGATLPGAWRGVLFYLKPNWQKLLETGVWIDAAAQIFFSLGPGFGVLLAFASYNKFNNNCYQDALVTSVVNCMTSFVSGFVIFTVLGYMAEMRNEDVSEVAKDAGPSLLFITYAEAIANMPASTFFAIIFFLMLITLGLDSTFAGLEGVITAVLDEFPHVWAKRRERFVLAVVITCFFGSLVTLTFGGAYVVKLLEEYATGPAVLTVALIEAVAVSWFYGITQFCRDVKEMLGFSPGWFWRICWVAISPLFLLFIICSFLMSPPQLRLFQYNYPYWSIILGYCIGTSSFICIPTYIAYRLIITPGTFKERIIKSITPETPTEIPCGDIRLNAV
Chain of human norepinephrine transporter (NET) (P23975 whole entry): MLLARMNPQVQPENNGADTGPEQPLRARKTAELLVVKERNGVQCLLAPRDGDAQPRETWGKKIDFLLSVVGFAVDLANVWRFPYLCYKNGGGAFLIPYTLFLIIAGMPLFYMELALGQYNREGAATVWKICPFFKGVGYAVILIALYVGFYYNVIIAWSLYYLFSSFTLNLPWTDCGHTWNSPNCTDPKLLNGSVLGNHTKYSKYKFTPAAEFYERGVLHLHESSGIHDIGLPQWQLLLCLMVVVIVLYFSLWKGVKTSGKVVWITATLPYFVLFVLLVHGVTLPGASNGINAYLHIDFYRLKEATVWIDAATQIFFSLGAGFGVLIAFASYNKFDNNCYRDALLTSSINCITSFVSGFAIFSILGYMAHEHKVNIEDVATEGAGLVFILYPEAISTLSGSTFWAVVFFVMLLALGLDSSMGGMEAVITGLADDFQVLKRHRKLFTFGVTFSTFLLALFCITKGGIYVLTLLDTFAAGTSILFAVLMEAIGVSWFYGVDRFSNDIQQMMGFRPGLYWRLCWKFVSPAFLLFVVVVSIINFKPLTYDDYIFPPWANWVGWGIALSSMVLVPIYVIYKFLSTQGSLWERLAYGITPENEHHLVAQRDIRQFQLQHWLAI
Chain of human dopamine transporter (DAT) (Q01959 whole entry): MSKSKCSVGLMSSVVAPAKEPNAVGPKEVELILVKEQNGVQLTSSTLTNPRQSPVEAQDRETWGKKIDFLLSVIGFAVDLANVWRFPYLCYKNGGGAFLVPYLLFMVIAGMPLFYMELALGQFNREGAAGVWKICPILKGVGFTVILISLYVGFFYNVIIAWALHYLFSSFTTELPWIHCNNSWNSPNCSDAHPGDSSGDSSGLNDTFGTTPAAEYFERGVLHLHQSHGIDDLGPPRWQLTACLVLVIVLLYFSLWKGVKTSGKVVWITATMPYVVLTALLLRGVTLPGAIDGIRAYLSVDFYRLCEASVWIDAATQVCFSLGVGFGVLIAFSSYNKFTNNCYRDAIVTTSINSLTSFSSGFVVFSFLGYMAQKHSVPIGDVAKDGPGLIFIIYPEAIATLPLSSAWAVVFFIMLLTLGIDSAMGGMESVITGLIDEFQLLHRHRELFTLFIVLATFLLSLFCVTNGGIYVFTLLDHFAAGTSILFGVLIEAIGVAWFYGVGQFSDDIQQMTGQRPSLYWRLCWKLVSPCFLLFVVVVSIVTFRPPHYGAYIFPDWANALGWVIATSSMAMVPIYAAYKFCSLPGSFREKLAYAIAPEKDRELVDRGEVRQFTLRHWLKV

Row | SMILES | pIC50 DAT [1] | pIC50 SERT [2] | pIC50 NET [3] | IC50 [2] | IC50 [3]
1 | Cl.Fc1cccc(Oc2cc(C(F)(F)F)nc(N3CCOC4(CCNCC4)C3)n2)c1 [Example 67, 4-[4-(3-fluorophenoxy)-6-(trifluoromethyl)pyrimidin-2-yl]-1-oxa-4,9-diazaspiro[5.5]undecane hydrochloride] | 7.80 | 5.32 | 6.02 | – | –
2 | Cc1cnc(N2CCC3(CC2)CNCCO3)nc1Oc1cccc(F)c1.Cl [Example 54, 9-[4-(3-fluorophenoxy)-5-methylpyrimidin-2-yl]-1-oxa-4,9-diazaspiro[5.5]undecane hydrochloride] | 6.96 | 5.00 | 5.34 | – | –
3 | Cl.O=C1CCNCC12CCN(c1nc(Oc3cccc(F)c3)cc(C(F)(F)F)n1)C2 (stereo not drawn) [Example 88, 2-[4-(3-fluorophenoxy)-6-(trifluoromethyl)pyrimidin-2-yl]-2,7-diazaspiro[4.5]decan-10-one hydrochloride] | 8.15 | 4.48 | 6.55 | – | –
4 | OC1CNCCC12CCN(c1nc(Oc3cccc(F)c3)cc(C(F)(F)F)n1)C2 (stereo not drawn) [Example 96, 2-[4-(3-fluorophenoxy)-6-(trifluoromethyl)pyrimidin-2-yl]-2,8-diazaspiro[4.5]decan-6-ol] | – | 5.25 | 6.62 | – | –
5 | Fc1cccc(Oc2ccc(F)c(N3CCC4(CC3)CNCCO4)c2F)c1 [Example 23, 9-[2,6-difluoro-3-(3-fluorophenoxy)phenyl]-1-oxa-4,9-diazaspiro[5.5]undecane] | 8.32 | 6.16 | 6.91 | – | –
6 | c1ccc(Cc2cccc(N3CCC4(CC3)CNCCO4)c2)cc1 [Example 33, 9-(3-benzylphenyl)-1-oxa-4,9-diazaspiro[5.5]undecane] | 6.42 | 5.73 | 5.54 | – | –
7 | Cl.N#Cc1c(C(F)(F)F)cc(Oc2cccc(F)c2)nc1N1CCC2(CC1)CNCCO2 [Example 40, 6-(3-fluorophenoxy)-2-{1-oxa-4,9-diazaspiro[5.5]undecan-9-yl}-4-(trifluoromethyl)pyridine-3-carbonitrile hydrochloride] | 7.25 | 5.35 | 6.29 | – | –
8 | Cl.Fc1cccc(Oc2cc(C(F)(F)F)nc(N3CCC4(CC3)CNCCO4)n2)c1 [Example 56, 9-[4-(3-fluorophenoxy)-6-(trifluoromethyl)pyrimidin-2-yl]-1-oxa-4,9-diazaspiro[5.5]undecane hydrochloride] | 8.42 | 5.77 | 6.37 | – | –
9 | Fc1cccc(Oc2cc(F)c(F)cc2N2CCCC3(CCNCC3)C2)c1 [Example 80, 2-[4,5-difluoro-2-(3-fluorophenoxy)phenyl]-2,9-diazaspiro[5.5]undecane] | 6.64 | 6.49 | 5.84 | – | –
10 | Cl.Fc1ccc(Oc2cc(C(F)(F)F)nc(N3CCC4(CC3)CNCCO4)n2)cc1 [Example 58, 9-[4-(4-fluorophenoxy)-6-(trifluoromethyl)pyrimidin-2-yl]-1-oxa-4,9-diazaspiro[5.5]undecane hydrochloride] | 7.53 | 7.31 | 5.52 | – | –
11 | c1ccc(Oc2ccccc2N2CCC3(CC2)CNCCO3)cc1 [Example 3, 9-(2-phenoxyphenyl)-1-oxa-4,9-diazaspiro[5.5]undecane] | 6.09 | 5.02 | 5.28 | – | –
12 | Cl.Fc1cccc(Oc2cc(C(F)(F)F)nc(N3CCC4(CC3)COCCN4)n2)c1 [Example 78, 9-[4-(3-fluorophenoxy)-6-(trifluoromethyl)pyrimidin-2-yl]-4-oxa-1,9-diazaspiro[5.5]undecane hydrochloride] | 7.94 | 5.17 | 7.32 | – | –
13 | O[C@H]1CNCC[C@@]12CCN(c1nc(Oc3cccc(F)c3)cc(C(F)(F)F)n1)C2 (single isomer, unassigned) [Example 100, 2-[4-(3-fluorophenoxy)-6-(trifluoromethyl)pyrimidin-2-yl]-2,8-diazaspiro[4.5]decan-6-ol] | – | – | – | 6.92 µM | 0.398 µM
14 | COc1ccccc1Oc1cc(C)nc(N2CCC3(CC2)CNCCO3)n1.Cl [Example 52, 9-[4-(2-methoxyphenoxy)-6-methylpyrimidin-2-yl]-1-oxa-4,9-diazaspiro[5.5]undecane hydrochloride] | 5.96 | – | 5.30 | > 100 µM | –
15 | Fc1cccc(Oc2cc(C(F)(F)F)nc(N3CCC4(CC3)CNCCN4)n2)c1 [Example 75, 9-[4-(3-fluorophenoxy)-6-(trifluoromethyl)pyrimidin-2-yl]-1,4,9-triazaspiro[5.5]undecane] | 8.88 | 5.18 | 6.54 | – | –
16 | CN1CCCNCC12CCN(c1nc(Oc3cccc(F)c3)cc(C(F)(F)F)n1)CC2 [Example 77, 3-[4-(3-fluorophenoxy)-6-(trifluoromethyl)pyrimidin-2-yl]-7-methyl-3,7,11-triazaspiro[5.6]dodecane] | 8.08 | 5.30 | 6.33 | – | –
17 | Cc1c(C#N)cc(N2CCC3(CC2)CNCCO3)cc1Oc1cccc(F)c1.Cl [Example 35, 3-(3-fluorophenoxy)-2-methyl-5-{1-oxa-4,9-diazaspiro[5.5]undecan-9-yl}benzonitrile hydrochloride] | 8.16 | 8.45 | 6.52 | – | –
18 | Fc1cccc(Oc2cncc(N3CCC4(CC3)CNCCO4)c2)c1 [Example 31, 9-[5-(3-fluorophenoxy)pyridin-3-yl]-1-oxa-4,9-diazaspiro[5.5]undecane] | 7.43 | 5.71 | 5.96 | – | –
19 | O=C1CCNCC12CCN(c1cc(F)c(F)cc1Oc1cccc(F)c1)C2 (stereo not drawn) [Example 86, 2-[4,5-difluoro-2-(3-fluorophenoxy)phenyl]-2,7-diazaspiro[4.5]decan-10-one] | 6.87 | 5.65 | 5.81 | – | –
20 | O[C@H]1CNCC[C@@]12CCN(c1nc(Oc3cccc(F)c3)cc(C(F)(F)F)n1)C2 (single isomer, unassigned) [Example 99, 2-[4-(3-fluorophenoxy)-6-(trifluoromethyl)pyrimidin-2-yl]-2,8-diazaspiro[4.5]decan-6-ol] | – | – | – | 11.2 µM | 0.245 µM
21 | OC1CNCCC12CCN(c1nc(Oc3cccc(F)c3)cc(C(F)(F)F)n1)C2 (stereo not drawn) [Example 97, 2-[4-(3-fluorophenoxy)-6-(trifluoromethyl)pyrimidin-2-yl]-2,8-diazaspiro[4.5]decan-6-ol] | – | 5.34 | 6.62 | – | –
22 | O[C@H]1CNCC[C@@]12CCN(c1nc(Oc3cccc(F)c3)cc(C(F)(F)F)n1)C2 (single isomer, unassigned) [Example 101, 2-[4-(3-fluorophenoxy)-6-(trifluoromethyl)pyrimidin-2-yl]-2,8-diazaspiro[4.5]decan-6-ol] | – | – | – | 11.2 µM | 0.263 µM
23 | O[C@H]1CNCC[C@@]12CCN(c1nc(Oc3cccc(F)c3)cc(C(F)(F)F)n1)C2 (single isomer, unassigned) [Example 98, 2-[4-(3-fluorophenoxy)-6-(trifluoromethyl)pyrimidin-2-yl]-2,8-diazaspiro[4.5]decan-6-ol] | – | – | – | 11.2 µM | 0.437 µM
